Patent US11230711B2, “Inhibition of LET7I as a means to enhance the protective effect of progesterone against stroke” (UNIVERSITY OF NORTH TEXAS HEALTH SCIENCE CENTER, priority 2017, dated 2022)

Columns and labels:
[1] = test system: C57BL/6J mice; assay: Ischemic lesion / infarct size by TTC staining after middle cerebral artery occlusion (MCAo); format: in vivo, mouse
Description: Mice will receive bilateral ovariectomy (OVX) using a dorsal approach under isoflurane anesthesia. A small cut is made through skin and abdominal muscles in left and right lateral abdomen. The arteries to left and right ovaries will be ligated, and ovaries will be cut. The muscles and skin will be sutured with 4-0 Vicryl absorbable suture.
Fused steroid pellets will be made using the flash-melt method described by Ratka and Simpkins. The pellets (containing P4 or control) will be implanted subcutaneously into abdominal area.
MCAo will be used to induce transient focal cerebral ischemia (as previously described). Briefly, under isoflurane anesthesia, a mid line incision will be made on the neck. Common carotid artery (CCA), external carotid artery (ECA) and internal carotid artery (ICA) will be dissected from the connective tissue. A silicon coated 6-0 nylon monofilament will be inserted into the left ECA and advanced till it occludes the origin of MCA. The MCA will be occluded for 60 minutes and then reperfusion attained by withdrawing the suture.
ICV injections will be performed as described by Sananbenesi et al.. In brief, mice will be anaesthetized and affixed with a cannula ipsilateral to the side of surgery (coordinates from Bregma: AP1/4_0.4 mm, L1/4_1.15 mm, V1/4_2.0 mm). […]

[2] = test system: Pgrmc1; assay: Pgrmc1 protein in the penumbra after MCAo (Western blot); format: in vivo, mouse; conditions: MCAo mice; day 7 and day 14; FIG. 11B
Description: (FIG. 11A) Representative immunoblots probed for Pgrmc1, pro- and mature-BDNF. (FIG. 11B) Quantitation graph of relative Pgrmc1 protein ratio to Gapdh (n=4-5 per group). (FIG. 11C) Quantitation graph of relative pro-BDNF protein ratio to Gapdh (n=4-5 per group). (FIG. 11D) Quantitation graph of relative mature BDNF protein ratio to Gapdh (n=4-5 per group). (FIG. 11E) Quantitation graph of relative let-7i expression in ischemic brain (n=4-5 per group). n.s: not significant, ** P<0.01 and *P<0.05 compared to sham, and #P<0.05 compared to P4+scrambled. Data are presented as the mean±SEM.
Primary cortical astrocytes and mouse brains were lysed with RIPA lysis buffer containing protease and phosphatase inhibitors, as previously described (44). After homogenization, samples were centrifuged at 45,000 rpm for 30 min at 4° C. and supernatants were collected. Total protein concentrations were determined using the Bio-Rad DC protein assay kit (Bio-Rad Laboratories). Cell lysates were separated by SDS-PAGE and transferred onto polyvinylidene fluoride membrane (Bio-Rad Laboratories) by electroblotting. Membranes were blocked with 5% skim milk in tris-buffered saline containing 0.2% Tween 20 (TBS-T) for 1 h at room temperature, followed by overnight incubations of primary antibodies at 4° C. […]

CC(=O)[C@H]1CC[C@H]2[C@@H]3CCC4=CC(=O)CC[C@]4(C)[C@H]3CC[C@]12C [P4, progesterone]
stroke-induced lesion size (ischemic injury), TTC stain ([1]; Example 1, MCAo mice, P4 pellet, ICV Let-7i antagomir, FIG. 6): no statistically significant effect | relative infarct size (ischemic injury), TTC staining ([1]; Example 2, 24 h after MCAo, vs cholesterol+scrambled, FIG. 12B): did not | Pgrmc1 protein level in the penumbra [2]: did not restore
